pIC50, pKi: −log10 of the molar value. Where two headings read alike, the source gives them in different places.

The target in assay [1] is T1, human A2AAR (Homo sapiens, UniProt P29274).
T1 construct: expressed in transfected cells; host or cells: CHO cells, crude membrane fractions
To be noted: cited from earlier work.

The target of assay [2] is T2, human A1AR (Homo sapiens, UniProt P30542).
T2 construct: expressed in transfected cells; host or cells: CHO cells, crude membrane fractions
T2 sequence (P30542 1-326): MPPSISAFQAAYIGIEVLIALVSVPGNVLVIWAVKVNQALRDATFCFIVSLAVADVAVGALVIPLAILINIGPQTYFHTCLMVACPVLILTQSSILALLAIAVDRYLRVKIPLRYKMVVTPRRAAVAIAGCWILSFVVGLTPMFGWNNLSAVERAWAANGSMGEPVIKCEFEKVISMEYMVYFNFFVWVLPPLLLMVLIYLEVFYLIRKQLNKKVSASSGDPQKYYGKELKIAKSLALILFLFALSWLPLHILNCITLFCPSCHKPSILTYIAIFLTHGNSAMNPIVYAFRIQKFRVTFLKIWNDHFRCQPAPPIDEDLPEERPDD
The conditions noted are these: [3H]-CCPA displacement, human A1AR in CHO cells; geometric mean with 95% confidence limits; read-out: Ki A1; cited from earlier work.

The target in assay [3] is T3, human A3AR (Homo sapiens, UniProt P0DMS8).
T3 construct: expressed in transfected cells; host or cells: CHO cells, crude membrane fractions
T3 sequence (P0DMS8 1-318): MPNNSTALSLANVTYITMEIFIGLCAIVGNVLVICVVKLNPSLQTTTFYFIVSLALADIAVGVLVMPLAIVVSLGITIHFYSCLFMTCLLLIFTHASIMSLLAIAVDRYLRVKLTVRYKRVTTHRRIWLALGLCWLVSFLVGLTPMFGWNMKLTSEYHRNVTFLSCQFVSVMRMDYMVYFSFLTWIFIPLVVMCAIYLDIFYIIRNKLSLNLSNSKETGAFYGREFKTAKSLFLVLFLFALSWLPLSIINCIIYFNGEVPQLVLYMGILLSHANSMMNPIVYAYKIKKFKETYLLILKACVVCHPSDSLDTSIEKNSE
The conditions noted are these: [3H]-NECA displacement, human A3AR in CHO cells; geometric mean with 95% confidence limits; read-out: Ki A3; cited from earlier work.

Assay [4] addresses T1, human A2AAR. Put plainly: Radioligand binding, displacement of [3H]NECA at human A2AAR in CHO cells. To be noted: for Selectivity A1/A2A / Selectivity A3/A2A: ratio of Ki values at human ARs; for pKi: [3H]-NECA displacement, geometric mean with 95% confidence limits, read-out: Ki A2A. Here is the method:
(§1) The radioligand binding experiments were carried out exactly as described previously. For A1AR binding, 1 nM [^3H]CCPA was used as a radioligand, whereas 30 and 10 nM [^3H]NECA were used for A2A and A3 ARs, respectively. Nonspecific binding was determined in the presence of 1 mM theophylline (A1AR) or […] R-PIA (A2A and A3 ARs). Ki values were calculated from competition curves by nonlinear curve fitting with the program SCTFIT [31].
(§2) CHO cells stably transfected with human ARs were grown adherently and maintained in Dulbecco’s Modified Eagles Medium with nutrient mixture F12 (DMEM/F12) without nucleosides, containing 10% fetal calf serum, penicillin (100 U/mL), streptomycin (100 μg/mL), L-glutamine (2 mM), and Geneticin (G-418, 0.2 mg/mL) at 37 °C in 5% CO2/95% air, as described earlier. For radioligand binding studies and measurement of adenylyl cyclase activity, crude membrane fractions were prepared from fresh or frozen cells with two different protocols described earlier. The determination of adenylyl cyclase activity followed the procedure described earlier. IC50 values for the inhibition of adenylyl cyclase stimulated (in the case of A2BAR) with 5 μM NECA were calculated with the Hill equation and converted to Ki values with the Cheng and Prusoff equation [32].
(§3) [^3H]CCPA (2-chloro-N^6-cyclopentylAdo) and [^3H]NECA (5′-N-ethylcarboxamidoAdo) were used as specific radioligands at A1ARand A2A / A3 ARs, respectively. Furthermore, the ability of the same compounds to inhibit NECA-stimulated adenylyl cyclase activity was evaluated at the A2BAR subtype. The results of the binding studies (A1, A2A, and A3 ARs) and functional data (A2BAR) are reported in Table 1 as Ki or IC50 values in nM, together with the data on the reference compounds 1–3.
A general note: Displacement assays read how much labelled ligand stays bound in the presence of the test substance.

In assay [5] the target is T4, human A2BAR (Homo sapiens, UniProt P29275).
T4 construct: expressed in transfected cells; host or cells: CHO cells, crude membrane fractions
T4 sequence (P29275 1-332): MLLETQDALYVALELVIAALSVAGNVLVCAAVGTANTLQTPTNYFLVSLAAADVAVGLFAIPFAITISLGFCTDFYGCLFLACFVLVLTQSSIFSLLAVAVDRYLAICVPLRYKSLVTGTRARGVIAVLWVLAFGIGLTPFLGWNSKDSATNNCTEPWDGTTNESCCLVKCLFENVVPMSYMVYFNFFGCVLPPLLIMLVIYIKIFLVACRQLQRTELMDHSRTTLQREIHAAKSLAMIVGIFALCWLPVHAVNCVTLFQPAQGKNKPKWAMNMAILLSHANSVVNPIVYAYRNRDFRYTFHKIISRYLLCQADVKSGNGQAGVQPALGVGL
To be noted: inhibition of NECA-stimulated AC activity, CHO cells expressing human A2BAR; geometric mean with 95% confidence limits; read-out: IC50 A2B; cited from earlier work.

Assay [6] has as its target T4, human A2BAR. Put plainly: Inhibition of NECA-stimulated adenylyl cyclase activity at human A2BAR. The assay is classed as biochemical. The conditions noted are these: inhibition of NECA-stimulated AC activity, CHO cells expressing human A2BAR, read-out: IC50 A2B; for pIC50: geometric mean with 95% confidence limits; for IC50: bound given in µM. Here is the method: as §2, §3

Assay [7] deals with T3, human A3AR. The experiment in a line: Radioligand binding, displacement of [3H]NECA at human A3AR in CHO cells. The conditions noted are these: [3H]-NECA displacement, read-out: Ki A3; for pKi: geometric mean with 95% confidence limits. On the procedure: as §1, §2, §3
Assay [8] concerns the target T2, human A1AR. Put plainly: Radioligand binding, displacement of [3H]CCPA at human A1AR in CHO cells. The conditions noted are these: for pKi: [3H]-CCPA displacement, geometric mean with 95% confidence limits, read-out: Ki A1. Here is the method:
as §1, §2, §3

Setting [9] is: [3H]-NECA displacement, human A2AAR in CHO cells, geometric mean with 95% confidence limits, read-out: Ki A2A.

T1 sequence (P29274 whole entry): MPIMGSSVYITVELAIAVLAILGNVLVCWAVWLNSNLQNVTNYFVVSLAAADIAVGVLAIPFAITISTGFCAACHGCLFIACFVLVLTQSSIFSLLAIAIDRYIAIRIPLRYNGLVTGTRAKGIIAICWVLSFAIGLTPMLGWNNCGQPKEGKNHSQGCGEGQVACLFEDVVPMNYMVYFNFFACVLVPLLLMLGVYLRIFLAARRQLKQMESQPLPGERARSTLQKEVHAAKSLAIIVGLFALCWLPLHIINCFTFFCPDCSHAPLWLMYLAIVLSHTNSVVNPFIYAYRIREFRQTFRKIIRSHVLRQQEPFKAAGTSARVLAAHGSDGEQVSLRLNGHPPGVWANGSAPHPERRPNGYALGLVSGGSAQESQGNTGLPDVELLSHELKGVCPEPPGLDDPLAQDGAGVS

For the compound `CCOc1nc2c(N)ncnc2n1CC` [ANR 94, 9-ethyl-8-ethoxyadenine, reference compound], the negative logarithm of the Ki (pKi) in assay [1] (read-out: Ki at the human A2AAR) is 7.34.

On to `CCn1c(-c2ccco2)nc2c(N)nc(OCCc3ccccc3)nc21` [Compound 2, 9-ethyl-8-furyl-2-phenetoxyadenine], for which the pKi in assay [2] was 8.24; in assay [3], 7.80; in assay [1] (setting [9]), 8.66. Further, the “Selectivity A1/A2A” value in assay [4] is reported as 2.6. Moreover, the “Selectivity A3/A2A” value in assay [4] is on record as 7.3. Further, in assay [5], the negative-log IC50 (pIC50) was 6.28.

Turning to `CCn1cnc2c(N)nc(OCCc3ccccc3)nc21` [Compound 3, 9-ethyl-2-phenethoxyadenine], the pKi in assay [2] was 6.77; in assay [3] it was 5.15; in assay [1] (setting [9]), 6.92. Further, the “Selectivity A1/A2A” value in assay [4] was determined as 1.4. In addition, the “Selectivity A3/A2A” value in assay [4] was 59. In addition, the pIC50 in assay [5] is 4.34.

Turning to `CCn1c(-c2cccs2)nc2c(N)nc(OCCc3ccccc3)nc21` [Compound 6], the pIC50 in assay [6] is 5.30. The results for the negative logarithm of the Ki (pKi) in assay [7], in assay [4] (human A2AAR in CHO cells) and in assay [8] were 7.57, 8.11 and 7.68, respectively. In assay [4], the “Selectivity A1/A2A” value worked out at 2.7. Besides, the “Selectivity A3/A2A” value in assay [4] is 3.5.

On to `CCn1c(C2CCCO2)nc2c(N)nc(OCCc3ccccc3)nc21` (centres unmarked) [Compound 7], for which the negative-log IC50 (pIC50) in assay [6] was 4.41. In addition, the negative logarithm of the Ki (pKi) was 5.84 in assay [7], 7.09 in assay [4] (human A2AAR in CHO cells) and 6.29 in assay [8]. Moreover, the “Selectivity A1/A2A” value in assay [4] came out at 6.3. Also, the “Selectivity A3/A2A” value in assay [4] was determined as 18.

On to `CCn1cnc2c(N)nc(OCCc3ccc(OC)cc3)nc21` [Compound 9, 9-ethyl-2-(4-methoxyphenyl)ethoxyadenine], for which, in assay [6], the negative logarithm of the IC50 (pIC50) is 4.20. Moreover, the pKi in assay [7] is 4.91; in assay [4] (human A2AAR in CHO cells), 6.18; in assay [8], 5.70. Besides, the “Selectivity A1/A2A” value in assay [4] came to 3.0. Moreover, the “Selectivity A3/A2A” value in assay [4] is on record as 19.

As to `CCn1c(Br)nc2c(N)nc(OCCc3ccc(OC)cc3)nc21` [Compound 10, 8-bromo-9-ethyl-2-(4-methoxyphenethoxy)-9H-purin-6-amine], the negative-log IC50 (pIC50) in assay [6] was 5.04. The figures for the pKi in assay [7], in assay [4] (human A2AAR in CHO cells) and in assay [8] were 5.39, 7.55 and 6.71, respectively. Further, the “Selectivity A1/A2A” value in assay [4] was 7.1. In assay [4], the “Selectivity A3/A2A” value was 146.

Turning to `CCn1c(-c2ccco2)nc2c(N)nc(OCCc3ccc(OC)cc3)nc21` [Compound 11], in assay [6], the half-maximal inhibitory concentration (IC50) is over 100 µM. The pKi is 7.14 in assay [7], 8.15 in assay [4] (human A2AAR in CHO cells) and 7.41 in assay [8]. In addition, the “Selectivity A1/A2A” value in assay [4] came out at 5.5. Further, the “Selectivity A3/A2A” value in assay [4] came to 10.

With `CCn1cnc2c(N)nc(Oc3ccc(CCO)cc3)nc21` [Compound 13, 2-(4-((6-amino-9-ethyl-9H-purin-2-yl)oxy)phenyl)ethan-1-ol], the IC50 in assay [6] is over 100 µM. The Ki in assay [7] (bound given in µM) is over 100 µM. In assay [4] (human A2AAR in CHO cells), the pKi is 5.15 and the “Affinity at A2A AR, in words” value was “µM affinity”. Further, the “Selectivity A1/A2A” value in assay [4] was 3.2. Further, in assay [8], the “Affinity at A1 AR, in words” value is on record as “µM affinity” and the pKi was 4.64.

As usually defined, the pKi is the negative decadic logarithm of the Ki, by convention in mol/L. One may read the pIC50 as the IC50 on a negative log10 scale, so that one unit is a factor of ten. The term IC50 denotes the point on the concentration scale where inhibition reaches its midpoint. In general, Ki refers to the dissociation constant of the complex between target and ligand, obtained from inhibition or displacement.

(Values after publication PMC11898488, “A2A Adenosine Receptor Antagonists and Their Efficacy in Rat Models of Parkinson’s Disease” (Cells, 2025).)
